According to US20250199015A1, “CYCLIN-DEPENDENT KINASE 2 INHIBITORS FOR MEDICAL TREATMENT” (INCYCLIX BIO, LLC, priority 2022, published 2025):
Entries after “also recorded” stand apart in the source; their conditions may differ. Read-outs that look alike come from different tables or passages of the source.

What was measured:
[1] = system: OVCAR-3 cells; assay: CellTiter Glo cell proliferation assay; type: cell-based, human; details: six days
Description: Plates were returned to the incubator for six additional days. On day six post dosing, plates were removed and treated with CellTiter Glo reagent following manufacturer's specifications. Plates were incubated 45 minutes at room temperature and run on Biotek luminometer with 1 sec/well detection. Results were converted to Microsoft Excel and transferred to Graphpad Prism for analysis. […] These cell types are distinguished by either gained of cyclin E1 expression or activation (Kuramochi) or intrinsic amplification of cyclin E1 (OVCAR-3, COV318).
In a similar manner, OVCAR-3 cells were grown in RPMI-1640, 1× Glutamax, 10% FBS and 1×ITS at 37° C., 5% CO2. Cells were plated at 500 cells per well in white wall/clear bottom plates and incubated overnight. […] Plates returned to incubator for six additional days. On day six post dosing, plates were removed and treated with CellTiter Glo reagent following manufacturer's specifications. Plates were incubated 45 minutes at room temperature and run on Biotek luminometer with 1 sec/well detection. Results were converted to Microsoft Excel and transferred to GraphPad Prism for analysis.

[2] = target: T1, human OAT3 (Homo sapiens, UniProt Q8TCC7); assay: SLC transporter inhibition in HEK293 cells; type: in vitro ADME
T1 construct: expressed in transfected cells; host or cells: HEK293
T1 sequence (Q8TCC7 1-542): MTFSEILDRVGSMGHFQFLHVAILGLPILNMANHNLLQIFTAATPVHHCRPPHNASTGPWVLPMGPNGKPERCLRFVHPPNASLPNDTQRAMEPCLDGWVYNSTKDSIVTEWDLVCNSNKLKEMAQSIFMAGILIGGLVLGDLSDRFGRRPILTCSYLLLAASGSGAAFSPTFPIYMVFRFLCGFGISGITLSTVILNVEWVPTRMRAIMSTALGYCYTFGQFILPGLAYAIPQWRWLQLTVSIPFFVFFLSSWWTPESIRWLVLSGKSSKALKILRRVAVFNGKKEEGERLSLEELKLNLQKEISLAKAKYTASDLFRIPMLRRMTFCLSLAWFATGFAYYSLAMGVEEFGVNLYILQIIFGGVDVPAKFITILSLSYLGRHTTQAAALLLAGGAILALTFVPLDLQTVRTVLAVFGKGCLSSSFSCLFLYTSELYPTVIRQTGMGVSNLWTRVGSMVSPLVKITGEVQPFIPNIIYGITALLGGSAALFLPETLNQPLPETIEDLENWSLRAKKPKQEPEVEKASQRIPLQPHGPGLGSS

[3] = system: pRb T821 in COV318 cells; assay: Western blot pRb; type: cell-based, human; details: 30-1000 nM, 24 hours
Description: Cells were plated at 300,000 cells/well in Corning 6 cm tissue culture treated plates. […] Cells were collected by washing each well twice with cold PBS, then scraping cells in the presence of 75 μL cold RIPA with protease and phosphatase inhibitors. Lysates were clarified by centrifugation at 12,000×g for 15 min at 4° C. and supernatants transferred to clean tubes. A BCA assay was performed to determine the protein concentration of each lysate. […] Protein was transferred to a nitrocellulose membrane and blocked with LI-COR blocking buffer for 1 hour. Membranes were incubated overnight in primary antibody at 4° C. Following 3 washes with TBS-T, membranes were incubated for 60 minutes in LI-COR secondary antibodies. Following 3 washes in TBS-T, and one TBS wash, membranes were scanned using a LI-COR OdysseyCLx. Image studio was used for image analysis.

[4] = GLP 28-day oral toxicity and toxicokinetics study; type: in vivo, Sprague Dawley rats; details: for AUC0-24 / AUC(0-t) / Cmax / Tmax / half-life: po; for half-life: t1/2
Description: One-hundred and sixty (80 per sex) Sprague Dawley rats were randomly assigned to groups and dosed once daily via oral gavage for 28 consecutive days.
Nominal dose values and sampling times were used for calculations. Any concentration reported as BLQ (LLOQ<1.0 ng/ml) was set equal to zero. Toxicokinetic analyses included Cmax, Tmax, AUC0-24, t1/2, RA Cmax, and RA AUC0-24.
Based on the absence of toxicity, the 28-day maximum tolerated dose (MTD) (also the no observed adverse effect level [NOAEL]) was 1000 mg/kg/day, the highest dose level tested. […] Respiratory function was also not affected by Compound I at any dose level.

[5] = system: Palbo-S MCF7 parental cells; assay: Cell cycle by EdU flow cytometry; type: cell-based, human; details: 10 nM to 10 μM, 24 hours
Description: (§1) The Palbo-sensitive (Palbo-S) MCF7 parental and Palbo-R daughter cells (MCF7 PDRC15-1) human […] carcinoma cell line was grown in MEM/1× Glutamax/1× Insulin/10% fetal bovine serum with the PDR cells grown in the presence of 1 μM palbociclib. Cells were plated at 100,000 cells/well in Corning 6 cm tissue culture treated plates. […] Cells were treated for 24 hours and 10 μM EdU was added 1 hour prior to collection. Cells were collected and fixed in 1% paraformaldehyde. Cells were incubated with Alexa488 azide dye as described by Thermo Scientific. Cells were then incubated with FarRed dye and RNase. Cells were analyzed on a BD Celesta and data compiled using FloJo and GraphPad. […] The resistant Palbo-R MCF7 cells have a much lower percent of cells in S phase in general.

[6] = system: Palbo-R MCF7 PDRC15-1 cells; assay: Cell cycle by EdU flow cytometry; type: cell-based, human; details: with 1 μM palbociclib, 24 hours
Description: as §1

[7] = female, Sprague Dawley, rat, in vivo, 100 mg/kg/day
[8] = female, Sprague Dawley, rat, in vivo, 300 mg/kg/day
[9] = female, Sprague Dawley, rat, in vivo, 1000 mg/kg/day
[10] = male, Sprague Dawley, rat, in vivo, 100 mg/kg/day
[11] = male, Sprague Dawley, rat, in vivo, 300 mg/kg/day
[12] = male, Sprague Dawley, rat, in vivo, 1000 mg/kg/day

NS(=O)(=O)c1ccc(Nc2ncc3cc4n(c3n2)C2(CCCCC2)C(=O)NN4)cc1 [Compound I]
cell viability compared with palbociclib ([1]; CCNE1 amplified): potently decreases cell viability | IC50 ([1]; Homo sapiens, OVCAR-3, 144 h): 0.049 µM | Maximum Percent inhibition ([2]; OAT3, HEK293 cells): 86% | IC50 ([2]; OAT3, HEK293 cells, read-out: IC50): 4.01 µM | IC50 ([2]; read-out: OAT3 IC50): 4.01 µM | pRb levels [3]: dose-dependent decrease in pRb levels | tolerability ([4]; PO, up to 28 days, up to 1000 mg/kg/day): generally well tolerated; also recorded: well tolerated in rats without adverse effects of any sort | mean body weight and body weight gain ([4]; any dose level): did not affect | MTD at 28 days ([4]; both sexes, Sprague Dawley, rat, in vivo, oral, highest dose level tested, read-out: 28-day maximum tolerated dose (MTD) (also NOAEL)): 1000 mg/kg/day | AUC0-24 [4, 7]: 7570 ng·h/mL | AUC(0-t) ([4]; female, Sprague Dawley, rat, in vivo, 100 mg/kg/day, AUC0-24): 9580 ng·h/mL | Cmax ([4]; female, Sprague Dawley, rat, in vivo, 100 mg/kg/day, Cmax): 3330 ng/mL | Tmax [4, 7]: 0.25 h | half-life [4, 7]: 3.93 h | AUC0-24 [4, 8]: 11600 ng·h/mL | AUC(0-t) ([4]; female, Sprague Dawley, rat, in vivo, 300 mg/kg/day, AUC0-24): 11400 ng·h/mL | Cmax ([4]; female, Sprague Dawley, rat, in vivo, 300 mg/kg/day, Cmax): 3070 ng/mL | Tmax [4, 8]: 0.5 h | half-life [4, 8]: 3.98 h | AUC0-24 [4, 9]: 12700 ng·h/mL | AUC(0-t) ([4]; female, Sprague Dawley, rat, in vivo, 1000 mg/kg/day, AUC0-24): 12600 ng·h/mL | Tmax [4, 9]: 0.5 h | AUC(0-t) ([4]; female, Sprague Dawley, rat, in vivo, 1000 mg/kg/day, plasma AUC0-24): 12700 ng·h/mL | Cmax ([4]; female, Sprague Dawley, rat, in vivo, 1000 mg/kg/day, plasma Cmax): 1390 ng/mL | half-life [4, 9]: 5.89 h | AUC0-24 [4, 10]: 8310 ng·h/mL | AUC(0-t) ([4]; male, Sprague Dawley, rat, in vivo, 100 mg/kg/day, AUC0-24): 11000 ng·h/mL | Cmax ([4]; male, Sprague Dawley, rat, in vivo, 100 mg/kg/day, Cmax): 1010 ng/mL | half-life [4, 10]: 3.27 h | AUC0-24 [4, 11]: 9750 ng·h/mL | AUC(0-t) ([4]; male, Sprague Dawley, rat, in vivo, 300 mg/kg/day, AUC0-24): 10700 ng·h/mL | Tmax [4, 11]: 0.5 h | half-life [4, 11]: 5.54 h | AUC0-24 [4, 12]: 8130 ng·h/mL | AUC(0-t) ([4]; male, Sprague Dawley, rat, in vivo, 1000 mg/kg/day, AUC0-24): 11300 ng·h/mL | AUC(0-t) ([4]; male, Sprague Dawley, rat, in vivo, 1000 mg/kg/day, plasma AUC0-24): 8130 ng·h/mL | Cmax ([4]; male, Sprague Dawley, rat, in vivo, 1000 mg/kg/day, plasma Cmax): 647 ng/mL | half-life [4, 12]: 9.35 h | accumulation after 28 days of once-daily dosing ([4]; rat, in vivo): no accumulation | cell cycle sensitivity [5]: not sensitive to Compound I | cell cycle arrest [6]: arrested during the G1 phase at 30, 100, 300 nM
